Here are results for 18 molecules from ChEMBL document CHEMBL1152569, “Synthesis, structure-affinity relationships, and modeling of AMDA analogs at 5-HT2A and H1 receptors: structural factors contributing to selectivity” (Bioorg Med Chem, 2009).

One assay deals with Histamine H1 receptor (Homo sapiens, UniProt P35367). The assay is described as follows: Displacement of [3H]chlorphniramine from human histamine H1 receptor expressed in cells. In kind it is cell-based.
The target of assay [1] is 5-hydroxytryptamine receptor 2A (Homo sapiens, UniProt P28223). Put plainly: Displacement of [3H]ketanserin from human 5HT2A receptor expressed in cells. In kind it is cell-based. On the technique in general: In a radioligand displacement assay an active substance lowers the binding of a labelled ligand.
Sequence of 5-hydroxytryptamine receptor 2A (P28223 whole entry): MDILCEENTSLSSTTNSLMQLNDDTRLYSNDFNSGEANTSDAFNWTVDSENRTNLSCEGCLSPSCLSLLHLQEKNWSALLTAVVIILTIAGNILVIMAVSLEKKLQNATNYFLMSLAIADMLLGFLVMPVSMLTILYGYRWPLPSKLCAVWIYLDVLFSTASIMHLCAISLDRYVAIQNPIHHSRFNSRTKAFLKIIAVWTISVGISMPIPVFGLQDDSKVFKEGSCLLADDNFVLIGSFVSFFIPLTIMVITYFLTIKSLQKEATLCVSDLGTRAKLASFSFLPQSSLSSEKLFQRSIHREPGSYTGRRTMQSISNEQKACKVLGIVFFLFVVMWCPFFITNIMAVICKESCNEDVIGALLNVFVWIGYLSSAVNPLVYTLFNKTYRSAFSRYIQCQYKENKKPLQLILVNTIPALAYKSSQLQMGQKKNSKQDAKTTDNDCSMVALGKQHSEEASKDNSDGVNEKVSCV

One may read the Ki as a dissociation constant, usually derived from enzyme kinetics or from competition with a known ligand. A higher Ki goes with weaker binding.

Structures are written as SMILES.

Sequence of Histamine H1 receptor (P35367 whole entry): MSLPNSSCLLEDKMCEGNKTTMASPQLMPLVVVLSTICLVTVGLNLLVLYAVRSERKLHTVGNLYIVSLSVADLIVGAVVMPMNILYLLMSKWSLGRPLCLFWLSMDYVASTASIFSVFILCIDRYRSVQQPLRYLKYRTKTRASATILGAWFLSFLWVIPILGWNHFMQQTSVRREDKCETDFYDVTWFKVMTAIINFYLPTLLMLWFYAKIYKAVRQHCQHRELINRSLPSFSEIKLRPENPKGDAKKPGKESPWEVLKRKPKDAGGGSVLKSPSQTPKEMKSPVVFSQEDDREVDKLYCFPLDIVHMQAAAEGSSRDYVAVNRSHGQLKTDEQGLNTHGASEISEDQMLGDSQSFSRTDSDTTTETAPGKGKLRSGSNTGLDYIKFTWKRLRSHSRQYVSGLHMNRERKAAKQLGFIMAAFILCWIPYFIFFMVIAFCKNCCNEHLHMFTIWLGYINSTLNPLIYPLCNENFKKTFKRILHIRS

Take `CNCC(c1ccccc1)c1ccccc1`: the Ki (at Histamine H1 receptor; in assay [1]) was more than 10000 nM each time.

As to `NCCC(c1ccccc1)c1ccccc1`, the Ki is 2760 nM on Histamine H1 receptor and more than 10000 nM in assay [1].

For the molecule `CNCCC(c1ccccc1)c1ccccc1`, the values for the Ki (on Histamine H1 receptor; in assay [1]) were 64 nM and 1500 nM, respectively.

Consider `CNCCC1c2ccccc2Cc2ccccc21`, for which the inhibition constant (Ki) at Histamine H1 receptor came to 48 nM; in assay [1], 92 nM.

In turn, `NCCC1c2ccccc2Cc2ccccc21` returned a Ki on Histamine H1 receptor of 137 nM.

Consider `CN(C)CC1c2ccccc2Cc2ccccc21`, for which the Ki at Histamine H1 receptor was 25 nM.

Regarding `NCC1c2ccccc2Cc2ccccc21`, the affinity at Histamine H1 receptor, expressed as Ki, was 197 nM.

With `CNCCCC1c2ccccc2Cc2ccccc21`, affinity at Histamine H1 receptor was put at a Ki of 3 nM.

`CN(C)CCC(c1ccccc1)c1ccccc1`: the Ki turned out to be 75 nM at Histamine H1 receptor and 1640 nM in assay [1].

As to `NCCCC1c2ccccc2Cc2ccccc21`, the Ki on Histamine H1 receptor stood at 175 nM.

Regarding `CNCC1c2ccccc2Cc2ccccc21`, the Ki on Histamine H1 receptor turned out to be 189 nM.

For `NCCCC(c1ccccc1)c1ccccc1`, the Ki at Histamine H1 receptor worked out at 1670 nM; in assay [1], 2590 nM.

On Histamine H1 receptor, `NCC(c1ccccc1)c1ccccc1` showed a Ki of more than 10000 nM.

Take `CN(C)CC(c1ccccc1)c1ccccc1`: the values for the Ki (at Histamine H1 receptor; in assay [1]) were 5170 nM and 7360 nM, respectively.

As to `CN(C)CCC1c2ccccc2Cc2ccccc21`, the values for the Ki (at Histamine H1 receptor; in assay [1]) were 6 nM and 84 nM, respectively.

Regarding `CN(C)CCCC1c2ccccc2Cc2ccccc21`, at Histamine H1 receptor, the Ki was found to be 0.5 nM.

Turning to `CN(C)CCCC(c1ccccc1)c1ccccc1`, the Ki is 70 nM on Histamine H1 receptor and 1150 nM in assay [1].

Consider `CNCCCC(c1ccccc1)c1ccccc1`, for which the Ki on Histamine H1 receptor stood at 386 nM; in assay [1], 754 nM.
